We go through four compounds from patent US20020162125A1, “Methods and compositions for the modulation of neurogenic inflammatory pain and physical opiate withdrawal” (priority 2001, published 2002).

The test system of data set [1] is αCGRP −/− and αCGRP +/+ mice. Nature of the data set: Heroin self-administration (lever press operant task). The class given is in vivo. Here is the method: Following acquisition of stable heroin self-administration at 15.0 μg/kg/injection dose (3 consecutive sessions <+/−20% variation, >70% active lever responding), mice were allowed to self-administer heroin at each dose during two daily two-hr sessions in a Latin square dose order. After all heroin doses had been tested, saline vehicle was substituted for heroin until responding stabilized for at least 2 consecutive sessions (data points above “saline”).
All procedures involving animals described here were approved by the Service Vétérinaire of the Canton of Vaud, Lausanne, Switzerland. Six individually housed mice of each genotype (CGRP −/− and +/+) were tested during the light phase (12/12; lights on 7:00 am) in daily sessions 5 days/week. Operant chambers housed in sound-attenuating cubicles with a house light and ventilation fan were equipped with cue lights above two retractable levers, a liquid dipper, syringe pump, liquid swivel and counterbalance arm (swivel and counterbalance arms—Instech, Plymouth Meeting, Pa., USA; all other equipment—MedAssociates, Georgia, Vt., USA). A single lever press on the “active” lever raised the dipper into the cage for 10 s and illuminated the cue light above the lever during reinforcer presentation and for a 1-10 s post-reinforcer Time-out (TO) period, depending on the schedule of reinforcement. […]

Data set [2] deals with αCGRP −/− and αCGRP +/+ mice. Description: Morphine tolerance in the tail-flick assay after repeated injections. The class given is in vivo. The note with it: αCGRP −/− vs +/+ mice; repeated ip morphine, day 1-2 50 mg/kg, day 3-4 100 mg/kg. Here is the method:
Daily injections ip of morphine were performed: day 1 and 2, 50 mg/kg, day 3-4, 100 mg/kg. Analgesia morphine was tested. αCGRP −/− and +/+ mice were analyzed in parallel.
(In general: Hot-plate and tail-flick tests time the reaction to a heat stimulus.)

In data set [3] the test system is αCGRP −/− and αCGRP +/+ mice. The note with it: αCGRP −/− mice vs +/+, 30 min after injection.
Protocol: The tail flick assay was performed with a tail flick analgesia meter from Columbus Instruments. The cut-off time of the test was 10 seconds.
Morphine or nicotine analgesia were analyzed by using tail flick and hot plate tests. The tests were performed 30 minutes after the injection of drug on αCGRP −/− and +/+ mice.
Data set [4] has as its system αCGRP −/− and αCGRP +/+ mice. Description: Morphine dependence, naloxone-precipitated somatic withdrawal signs. As for the experimental part: Morphine dependence was induced by repeated ip morphine injection for one week: day 1 and 2, 50 mg/kg; day 3 and 4, 100 mg/kg; days 5-7, 100 mg/kg twice/day; day 8, 100 mg/kg in the morning. […] The inventors noted the behavioral withdrawal symptoms (jumping, teeth chattering, tremors, paw tremors, wet dog shakes, ptosis, diarrhea) during 30 minutes after naloxone injection.

The subject of data set [5] is αCGRP −/− and αCGRP +/+ mice. The note with it: αCGRP −/− mice vs +/+; nicotine 0.5 and 2.0 mg/kg sc; data not shown.

Where two headings read alike, the source gives them in different places.

With `CC(=O)Oc1ccc2c3c1O[C@H]1[C@@H](OC(C)=O)C=C[C@H]4[C@@H](C2)N(C)CC[C@@]341` [heroin], the “intake (injections per session) at 30 μg/kg/injection vs 7.5 and 15.0 μg/kg/injection doses” value in data set [1] (both genotypes, P<0.05) was “differed significantly”. Also, the “acquisition or maintenance of self-administration” value in data set [1] (αCGRP −/− vs +/+ mice, 3.75-30 μg/kg/injection iv, FR2) was “did not differ”.
For the compound `CN1CC[C@]23c4c5ccc(O)c4O[C@H]2[C@@H](O)C=C[C@H]3[C@H]1C5` [morphine], in data set [2], the “progressive decrease in amplitude of antinociceptive response (tolerance), tail-flick” value was “did not differ”. The “analgesic response in tail-flick (% MPE)” value in data set [3] (morphine 1 mg/kg ip) is “attenuated”; in data set [3] (morphine 5 mg/kg ip) it was “to a lesser extent”.
With `C=CCN1CC[C@]23c4c5ccc(O)c4O[C@H]2C(=O)CC[C@@]3(O)[C@H]1C5` [naloxone], the “withdrawal signs in saline-treated control mice” value in data set [4] (naloxone 2 mg/kg ip, mutant and wild type, data not shown) was “did not induce any withdrawal signs”. Besides, the total withdrawal scores result in data set [4] (αCGRP −/− vs +/+ mice made morphine dependent, naloxone 0.1, 0.2 and 2.0 mg/kg ip) was “significantly lower”. Also, the “frequency of each somatic sign of morphine withdrawal (e.g. jumping)” value in data set [4] (αCGRP −/− vs +/+ mice made morphine dependent, precipitated by naloxone) is on record as “reduced”.
`CN1CCCC1c1cccnc1` (stereo not shown) [nicotine]: in data set [5], the “analgesic effects in hot-plate test” value was “significantly increased”. Further, the “analgesic effects in tail-flick (% MPE)” value in data set [3] (nicotine 0.5 and 2.0 mg/kg sc) was “significantly increased”.
